Data reported in patent US7348427B2, “Antipathogenic benzamide compounds” (Genesoft Pharmaceuticals, Inc., priority 2001, dated 2008).
Each block holds one molecule with its values, some of them ahead of it.

Tests used:
[1] = system: Bacillus cereus (ATCC 11778); experiment: MIC, NCCLS broth microdilution assay; assay type: cell-based; settings: A = B. cereus ATCC 11778
In short: (§1)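 Activity is measured as MIC in microtiter broth microdilution under NCCLS M7-A4, M11-A4 and M27-T guidance, with the yeast tested by the method in Murray's Manual of Clinical Microbiology.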

[2] = system: Enterococcus faecium (ATCC 51559, a vancomycin resistant strain (VRE)); experiment: MIC, NCCLS broth microdilution assay; assay type: cell-based; settings: D = E. faecium ATCC 51559
In short: as §1

[3] = system: Staphylococcus aureus (ATCC 13709, a methicillin sensitive strain (MSSA)); experiment: MIC, NCCLS broth microdilution assay; assay type: cell-based; settings: E = S. aureus ATCC 13709
In short: as §1

[4] = system: Staphylococcus aureus (ATCC 27660, a methicillin resistant strain (MRSA)); experiment: MIC, NCCLS broth microdilution assay; assay type: cell-based; settings: F = S. aureus ATCC 27660
In short: as §1

[5] = system: Staphylococcus epidermidis (ATCC 12228); experiment: MIC, NCCLS broth microdilution assay; assay type: cell-based; settings: G = S. epidermidis ATCC 12228
In short: as §1

[6] = system: Streptococcus pneumoniae (ATCC 51422, a penicillin resistant strain (PRSP)); experiment: MIC, NCCLS broth microdilution assay; assay type: cell-based; settings: I = S. pneumoniae ATCC 51422
In short: as §1

[7] = system: Candida albicans (ATCC 38247); experiment: Antifungal MIC assay; assay type: cell-based; settings: B = C. albicans ATCC 38247
In short: as §1

E. faecalis ATCC 29212 = experiment: MIC, NCCLS broth microdilution assay; assay type: cell-based, Enterococcus faecalis; settings: C = E. faecalis ATCC 29212
In short: (§2)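 MICs were determined by NCCLS broth microdilution following documents M7-A4 and M11-A4 (1997).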

S. pneumoniae ATCC 49619 = experiment: MIC, NCCLS broth microdilution assay; assay type: cell-based, Streptococcus pneumoniae; settings: H = S. pneumoniae ATCC 49619
In short: as §2

[8] = Staphylococcus aureus, read-out: Minimum Inhibitory Concentration (MIC)

Compound: Cn1cc(NC(=O)c2cc(NC(=O)c3ccc(Cl)cc3F)c[nH]2)cc1C(=O)NCCN1CCC(F)(F)CC1 [Compound A-22]
Minimum Inhibitory Concentration (MIC) [1]: +++ (+++ = MIC ≦ 4) | Minimum Inhibitory Concentration (MIC) [2]: +++ (+++ = MIC ≦ 4) | Minimum Inhibitory Concentration (MIC) [3]: +++ (+++ = MIC ≦ 4) | Minimum Inhibitory Concentration (MIC) [4]: +++ (+++ = MIC ≦ 4) | Minimum Inhibitory Concentration (MIC) [5]: +++ (+++ = MIC ≦ 4) | Minimum Inhibitory Concentration (MIC) [6]: +++ (+++ = MIC ≦ 4) | Minimum Inhibitory Concentration (MIC) [7]: >32 µg/mL | Minimum Inhibitory Concentration (MIC) (E. faecalis ATCC 29212): +++ (+++ = MIC ≦ 4) | Minimum Inhibitory Concentration (MIC) (S. pneumoniae ATCC 49619): +++ (+++ = MIC ≦ 4)

MIC ([1]; Bacillus cereus, ATCC11778, read-out: Minimum Inhibitory Concentration (MIC)): ≤ 4 µg/mL | MIC ([2]; Enterococcus faecium, read-out: Minimum Inhibitory Concentration (MIC)): 12 to 32 µg/mL | MIC [3, 8]: ≤ 4 µg/mL | MIC [4, 8]: ≤ 4 µg/mL | MIC ([5]; Staphylococcus epidermidis, ATCC12228, read-out: Minimum Inhibitory Concentration (MIC)): ≤ 4 µg/mL | MIC ([6]; Streptococcus pneumoniae, read-out: Minimum Inhibitory Concentration (MIC)): ≤ 4 µg/mL | MIC ([7]; Candida albicans, ATCC38247, read-out: Minimum Inhibitory Concentration (MIC)): ≤ 4 µg/mL | MIC (E. faecalis ATCC 29212; Enterococcus faecalis, ATCC29212, read-out: Minimum Inhibitory Concentration (MIC)): 4 to 12 µg/mL | MIC (S. pneumoniae ATCC 49619; Streptococcus pneumoniae, ATCC49619, read-out: Minimum Inhibitory Concentration (MIC)): ≤ 4 µg/mL
Compound: Cn1cc(NC(=O)c2cc(NC(=O)c3cc(NC(=O)c4ccc(Cl)cc4F)c[nH]3)cn2C)cc1C(=O)NCC[N+]1(C)CCOCC1 [Compound A-28]

Compound: Cn1cc(NC(=O)c2cc(NC(=O)c3cc(NC(=O)c4ccc(F)cc4F)cn3C)cn2C)cc1C(=O)NCCN1CCOCC1 [Compound B-1]
Minimum Inhibitory Concentration (MIC) [1]: +++ (+++ = MIC ≦ 4) | Minimum Inhibitory Concentration (MIC) [2]: +++ (+++ = MIC ≦ 4) | Minimum Inhibitory Concentration (MIC) [3]: +++ (+++ = MIC ≦ 4) | Minimum Inhibitory Concentration (MIC) [4]: +++ (+++ = MIC ≦ 4) | Minimum Inhibitory Concentration (MIC) [5]: +++ (+++ = MIC ≦ 4) | Minimum Inhibitory Concentration (MIC) [6]: +++ (+++ = MIC ≦ 4) | Minimum Inhibitory Concentration (MIC) [7]: >32 µg/mL | Minimum Inhibitory Concentration (MIC) (E. faecalis ATCC 29212): +++ (+++ = MIC ≦ 4) | Minimum Inhibitory Concentration (MIC) (S. pneumoniae ATCC 49619): +++ (+++ = MIC ≦ 4)

Compound: Cn1cc(NC(=O)c2cc(NC(=O)c3cc(NC(=O)c4ccc(F)cc4F)cn3C)cn2C)cc1C(=O)NCCN1CCSCC1 [Compound B-3]
Minimum Inhibitory Concentration (MIC) [1]: +++ (+++ = MIC ≦ 4) | Minimum Inhibitory Concentration (MIC) [2]: + (+ = 12 ≦ MIC ≦ 32) | Minimum Inhibitory Concentration (MIC) [3]: +++ (+++ = MIC ≦ 4) | Minimum Inhibitory Concentration (MIC) [4]: +++ (+++ = MIC ≦ 4) | Minimum Inhibitory Concentration (MIC) [5]: +++ (+++ = MIC ≦ 4) | Minimum Inhibitory Concentration (MIC) [6]: +++ (+++ = MIC ≦ 4) | Minimum Inhibitory Concentration (MIC) [7]: >32 µg/mL | Minimum Inhibitory Concentration (MIC) (E. faecalis ATCC 29212): +++ (+++ = MIC ≦ 4) | Minimum Inhibitory Concentration (MIC) (S. pneumoniae ATCC 49619): +++ (+++ = MIC ≦ 4)

Compound: Cn1cc(NC(=O)c2cc(NC(=O)c3ccc(F)cc3F)cn2C)cc1C(=O)NCCN1CCSCC1 [Compound B-11]
Minimum Inhibitory Concentration (MIC) [1]: +++ (+++ = MIC ≦ 4) | Minimum Inhibitory Concentration (MIC) [2]: +++ (+++ = MIC ≦ 4) | Minimum Inhibitory Concentration (MIC) [3]: +++ (+++ = MIC ≦ 4) | Minimum Inhibitory Concentration (MIC) [4]: +++ (+++ = MIC ≦ 4) | Minimum Inhibitory Concentration (MIC) [5]: +++ (+++ = MIC ≦ 4) | Minimum Inhibitory Concentration (MIC) [6]: +++ (+++ = MIC ≦ 4) | Minimum Inhibitory Concentration (MIC) [7]: >32 µg/mL | Minimum Inhibitory Concentration (MIC) (E. faecalis ATCC 29212): +++ (+++ = MIC ≦ 4) | Minimum Inhibitory Concentration (MIC) (S. pneumoniae ATCC 49619): +++ (+++ = MIC ≦ 4)

Compound: Cn1cc(NC(=O)c2cc(NC(=O)c3cc(NC(=O)c4ccc(F)cc4F)cn3C)cn2C)cc1C(=O)NCCc1ccncc1 [Compound B-22]
Minimum Inhibitory Concentration (MIC) [1]: +++ (+++ = MIC ≦ 4) | Minimum Inhibitory Concentration (MIC) [2]: +++ (+++ = MIC ≦ 4) | Minimum Inhibitory Concentration (MIC) [3]: +++ (+++ = MIC ≦ 4) | Minimum Inhibitory Concentration (MIC) [4]: +++ (+++ = MIC ≦ 4) | Minimum Inhibitory Concentration (MIC) [5]: +++ (+++ = MIC ≦ 4) | Minimum Inhibitory Concentration (MIC) [6]: +++ (+++ = MIC ≦ 4) | Minimum Inhibitory Concentration (MIC) [7]: >32 µg/mL | Minimum Inhibitory Concentration (MIC) (E. faecalis ATCC 29212): +++ (+++ = MIC ≦ 4) | Minimum Inhibitory Concentration (MIC) (S. pneumoniae ATCC 49619): +++ (+++ = MIC ≦ 4)
